Tested on: mouse counterpart genes
Experiment: Mouse GeneChip (MG-U74A to MG-U74C) analysis of lung and trachea of the OVA antigen-exposed bronchial hypersensitivity model, S-Sal group versus S-OVA group
Format: in vivo
[1] = S-Sal group vs S-OVA group, chip B, 1st
[2] = S-Sal group vs S-OVA group, chip B, 2nd
[3] = S-Sal group vs S-OVA group, chip B, 3rd
[4] = S-Sal group vs S-OVA group, chip C, 1st
[5] = S-Sal group vs S-OVA group, chip C, 2nd
[6] = S-Sal group vs S-OVA group, chip C, 3rd
[7] = S-Sal vs S-OVA group, 1st, P/A: A
[8] = S-Sal vs S-OVA group, 1st, P/A: M
[9] = S-Sal vs S-OVA group, 1st, P/A: P
[10] = S-Sal vs S-OVA group, 2nd, P/A: A
[11] = S-Sal vs S-OVA group, 2nd, P/A: P

## ovalbumin [OVA antigen, ovalbumin antigen used for sensitization and inhalation to induce bronchial hypersensitivity in mice]
[1]
  Fold Change, SAM domain and HD domain, 1 (mouse Probe ID 109915_at): 1.2
  Fold Change, Similar to dihydropyrimidine dehydrogenase, clone MGC: 37940 (mouse Probe ID 111949_at): 0.588
  Fold Change, Similar to guanylate nucleotide binding protein 3, clone MGC: 6385 (mouse Probe ID 107939_at): 1.9
  Fold Change, procollagen lysine, 2-oxoglutarate 5-dioxygenase 2 (mouse Probe ID 114376_at): 0.833
  Fold Change, thioredoxin reductase 1 (mouse Probe ID 162642_at): 0.323
[2]
  Fold Change, ESTs AI844322 (mouse Probe ID 110469_at): 0.833
  Fold Change, RIKEN cDNA 2610017M01 gene (mouse Probe ID 105606_at): 0.5
  Fold Change, RIKEN cDNA 2610017M01 gene (mouse Probe ID 163053_at): 0.833
  Fold Change, SAM domain and HD domain, 1 (mouse Probe ID 109915_at): 0.303
  Fold Change, Similar to dihydropyrimidine dehydrogenase, clone MGC: 37940 (mouse Probe ID 111949_at): 0.588
  Fold Change, Similar to guanylate nucleotide binding protein 3, clone MGC: 6385 (mouse Probe ID 107939_at): 1.2
  Fold Change, growth arrest and DNA-damage-inducible 45 gamma (mouse Probe ID 109336_at): 1.7
  Fold Change, procollagen lysine, 2-oxoglutarate 5-dioxygenase 2 (mouse Probe ID 114376_at): 1.1
  Fold Change, thioredoxin reductase 1 (mouse Probe ID 162642_at): 2.8
[3]
  Fold Change, RIKEN cDNA 2610017M01 gene (mouse Probe ID 105606_at): 0.667
  Fold Change, RIKEN cDNA 2610017M01 gene (mouse Probe ID 163053_at): 1.2
  Fold Change, SAM domain and HD domain, 1 (mouse Probe ID 109915_at): 1.1
  Fold Change, Similar to dihydropyrimidine dehydrogenase, clone MGC: 37940 (mouse Probe ID 111949_at): 0.833
  Fold Change, Similar to guanylate nucleotide binding protein 3, clone MGC: 6385 (mouse Probe ID 107939_at): 0.833
  Fold Change, thioredoxin reductase 1 (mouse Probe ID 162642_at): 0.588
[4]
  Fold Change, RIKEN cDNA 6330404C01 gene (mouse Probe ID 166590_at): 2
  Fold Change, expressed sequence AV022454 (mouse Probe ID 165678_i_at): 1.3
  Fold Change, interferon-induced protein with tetratricopeptide repeats 1 (mouse Probe ID 168299_f_at): 1.3
  Fold Change, small inducible cytokine subfamily B (Cys-X-Cys), member 11 (mouse Probe ID 140659_at): 3.8
[5]
  Fold Change, RIKEN cDNA 6330404C01 gene (mouse Probe ID 166590_at): 1
  Fold Change, expressed sequence AV022454 (mouse Probe ID 165678_i_at): 1.3
  Fold Change, hydroxysteroid (17-beta) dehydrogenase 2 (mouse Probe ID 166141_i_at): 0.526
  Fold Change, interferon-induced protein with tetratricopeptide repeats 1 (mouse Probe ID 168299_f_at): 1.1
  Fold Change, sialyltransferase 1 (beta-galactoside alpha-2,6-sialyltransferase) (mouse Probe ID 167200_r_at): 1.6
  Fold Change, small inducible cytokine subfamily B (Cys-X-Cys), member 11 (mouse Probe ID 140659_at): 2
[6]
  Fold Change, expressed sequence AV022454 (mouse Probe ID 165678_i_at): 2.2
  Fold Change, hydroxysteroid (17-beta) dehydrogenase 2 (mouse Probe ID 166141_i_at): 1.9
  Fold Change, hydroxysteroid (17-beta) dehydrogenase 2 (mouse Probe ID 169670_at): 0.385
  Fold Change, interferon-induced protein with tetratricopeptide repeats 1 (mouse Probe ID 168299_f_at): 1.2
  Fold Change, small inducible cytokine subfamily B (Cys-X-Cys), member 11 (mouse Probe ID 140659_at): 1
[7]
  Fold Change, DNA-damage inducible transcript 3 (mouse Probe ID 101429_at): 0.37
  Fold Change, RAS guanyl releasing protein 1 (mouse Probe ID 98307_at): 0.5
  Fold Change, RAS guanyl releasing protein 1 (mouse Probe ID 167498_i_at): 0.833
  Fold Change, RIKEN cDNA A2301D9K23 gene (mouse Probe ID 163453_at): 1.6
  Fold Change, RIKEN cDNA A2301D9K23 gene (mouse Probe ID 166475_r_at): 1.2
  Fold Change, acid phosphatase 5, tartrate resistant (mouse Probe ID 162543_r_at): 4.3
  Fold Change, cathepsin C (mouse Probe ID 101020_at): 1.8
  Fold Change, cathepsin C (mouse Probe ID 161251_f_at): 0.667
  Fold Change, cytokine inducible SH2-containing protein 1 (mouse Probe ID 92832_at): 1.6
  Fold Change, dual specificity phosphatase 14 (mouse Probe ID 165144_r_at): 0.5
  Fold Change, dual specificity phosphatase 14 (mouse Probe ID 171285_at): 1.7
  Fold Change, fetuin beta (mouse Probe ID 108524_at): 1.2
  Fold Change, keratin complex 1, acidic, gene 16 (mouse Probe ID 103589_at): 1.8
  Fold Change, keratin complex 1, acidic, gene 16 (mouse Probe ID 164428_i_at): 1.5
  Fold Change, nuclear factor, interleukin 3, regulated (mouse Probe ID 164758_i_at): 1.4
  Fold Change, serine (or cysteine) proteinase inhibitor, clade B (ovalbumin), member 2 (mouse Probe ID 137166_r_at): 0.667
  Fold Change, transmembrane 4 superfamily member 8 (mouse Probe ID 97912_at): 3.6
  Fold Change, ubiquitin D (mouse Probe ID 169362_f_at): 1.2
[8]
  Fold Change, neutrophil cytosolic factor 2 (mouse Probe ID 102326_at): 2
  Fold Change, ubiquitin fusion degradation 1 like (mouse Probe ID 93303_at): 0.567
[9]
  Fold Change, DEAD (aspartate-glutamate-alanine-aspartate) box polypeptide 5 (mouse Probe ID 93493_at): 1
  Fold Change, DEAD (aspartate-glutamate-alanine-aspartate) box polypeptide 5 (mouse Probe ID 113899_at): 0.909
  Fold Change, RIKEN cDNA 4933419D20 gene (mouse Probe ID 97442_at): 1.2
  Fold Change, RIKEN cDNA 4933419D20 gene (mouse Probe ID 112237_at): 1.1
  Fold Change, cathepsin C (mouse Probe ID 101019_at): 1.2
  Fold Change, dual specificity phosphatase 14 (mouse Probe ID 162702_at): 1.2
  Fold Change, expressed sequence AI463430 (mouse Probe ID 112883_at): 1
  Fold Change, fatty acid binding protein 4, adipocyte (mouse Probe ID 100567_at): 0.556
  Fold Change, integrin-associated protein (mouse Probe ID 103611_at): 1
  Fold Change, ribosomal protein S16 (mouse Probe ID 97647_at): 1
  Fold Change, ribosomal protein S16 (mouse Probe ID 169860_r_at): 33
  Fold Change, serine (or cysteine) proteinase inhibitor, clade B (ovalbumin), member 2 (mouse Probe ID 92978_s_at): 2.1
  Fold Change, serine (or cysteine) proteinase inhibitor, clade B (ovalbumin), member 6 (mouse Probe ID 96060_at): 1.1
  Fold Change, signal transducer and activator of transcription 1 (mouse Probe ID 101465_at): 1.8
  Fold Change, signal transducer and activator of transcription 1 (mouse Probe ID 114635_at): 2
  Fold Change, ubiquitin D (mouse Probe ID 168938_r_at): 1.4
[10]
  Fold Change, DNA-damage inducible transcript 3 (mouse Probe ID 101429_at): 0.526
  Fold Change, RAS guanyl releasing protein 1 (mouse Probe ID 167498_i_at): 1.6
  Fold Change, RIKEN cDNA A2301D9K23 gene (mouse Probe ID 163453_at): 1.4
  Fold Change, RIKEN cDNA A2301D9K23 gene (mouse Probe ID 166475_r_at): 0.556
  Fold Change, acid phosphatase 5, tartrate resistant (mouse Probe ID 162543_r_at): 6.8
  Fold Change, cathepsin C (mouse Probe ID 101020_at): 0.625
  Fold Change, cathepsin C (mouse Probe ID 161251_f_at): 1
  Fold Change, cytokine inducible SH2-containing protein 1 (mouse Probe ID 92832_at): 1.9
  Fold Change, dual specificity phosphatase 14 (mouse Probe ID 165144_r_at): 0.833
  Fold Change, fetuin beta (mouse Probe ID 108524_at): 0.278
  Fold Change, keratin complex 1, acidic, gene 16 (mouse Probe ID 103589_at): 1.3
  Fold Change, keratin complex 1, acidic, gene 16 (mouse Probe ID 164428_i_at): 1.6
  Fold Change, ribosomal protein S16 (mouse Probe ID 169860_r_at): 1.4
  Fold Change, serine (or cysteine) proteinase inhibitor, clade B (ovalbumin), member 2 (mouse Probe ID 137166_r_at): 0.667
  Fold Change, transmembrane 4 superfamily member 8 (mouse Probe ID 97912_at): 1
  Fold Change, ubiquitin D (mouse Probe ID 92715_at): 0.455
  Fold Change, ubiquitin D (mouse Probe ID 168938_r_at): 0.667
  Fold Change, ubiquitin D (mouse Probe ID 169362_f_at): 1
  Fold Change, ubiquitin fusion degradation 1 like (mouse Probe ID 93303_at): 0.303
S-Sal vs S-OVA group, 2nd, P/A: M
  Fold Change, RAS guanyl releasing protein 1 (mouse Probe ID 98307_at): 1.7
[11]
  Fold Change, DEAD (aspartate-glutamate-alanine-aspartate) box polypeptide 5 (mouse Probe ID 93493_at): 1
  Fold Change, DEAD (aspartate-glutamate-alanine-aspartate) box polypeptide 5 (mouse Probe ID 113899_at): 0.714
  Fold Change, RIKEN cDNA 4933419D20 gene (mouse Probe ID 97442_at): 1
  Fold Change, RIKEN cDNA 4933419D20 gene (mouse Probe ID 112237_at): 1
  Fold Change, acid phosphatase 5, tartrate resistant (mouse Probe ID 98859_at): 1.4
